In the assay the test system is E1, UbcH5c, UbcH7, HOIL-1L, RNF144A, HHARI, TRIAD3A RBR domains, NEDD4L, E6AP, OTULIN, CYLD-1. Kind of assay: LC-MS-based enzyme counter screen. The class given is binding. The conditions noted are these: 10-fold stoichiometric excess, 24 h incubation. As for the experimental part:
0.1% formic acid in water. The samples were analyzed on a Q Exactive MS (Thermo Fisher) coupled to an Easy-nLC chromatographic system (Thermo Fisher) with a nano ESI source (Thermo Fisher). Each sample (2 µL) was injected and trapped on a C18 Acclaim pepMap 100 enrichment column (75 µm id × 2 cm, 3 µm nanoviper, Thermo Fisher). The samples were transferred to a C18 Acclaim PepMap RSLC analytical column (75 µm id × 15 cm, 2 µm, Thermo Fisher) at 300 nL/min. Mobile phase A (0.1% Formic acid in water, v/v); mobile phase B (0.1% […]
min (70-95% B), 56-61 min (95% B). The nanospray ionisation source was operated in the positive mode with spray voltage set at 2 kV, and heated capillary at 250 °C. The Q Exactive was operated in the data dependent mode and the top 15 most intense ions were subjected to HCD fragmentation with normalised collision energy set at 26%. The MS1 scans were performed at a resolution of 70 000 from 400-1600 m/z, automatic gain control (AGC) value 3 e6, maximum injection time 100 ms. […]
Compounds (1) and (5) were screened against E1, the E2s UbcH5c and UbcH7, the RBR domains of the E3 ligases HOIP, HOIL-1L, RNF144A, HHARI and TRIAD3A, the HECT E3 ligases NEDD4L and E6AP, and the DUBs OTULIN and CYLD-1. […] The samples were analyzed after 0.5 and 24 h incubation. […]
(In general: Counterscreens check selectivity or assay interference.)

For `COC(=O)/C=C/CNC(=O)c1cc2c([nH]c1=O)CCC2` [Compound 5], the “labeling of all other proteins screened” value is on record as below 40%.
